#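 These data come from cells grown in 96-well plates and exposed to compound for 48 hours at five concentrations. At the GI50, growth is halved.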 Active and inactive are the calls of the source. No stated cut-off is given here; in the data, active = GI50 up to about 1.1 µM and inactive = higher.
# Assays:
# Test in all cases: DTP human tumour cell line panel, 48 h
# KM-20L2 = test system: KM-20L2
# SN12C = test system: SN12C
# TK-10 = test system: TK-10
# KM12 = test system: KM12
# A549 = test system: A549
# DLD-1 = test system: DLD-1
# M14 = test system: M14
# IGROV-1 = test system: IGROV-1
# NCI-H522 = test system: NCI-H522
# M19-MEL = test system: M19-MEL
# A498 = test system: A498
# Malme-3M = test system: Malme-3M
# HCT-116 = test system: HCT-116
# ACHN = test system: ACHN
# HOP-92 = test system: HOP-92
# XF498 = test system: XF498
# RXF 631 = test system: RXF 631
# UACC-62 = test system: UACC-62
# UO-31 = test system: UO-31
# SNB-78 = test system: SNB-78
# HCC 2998 = test system: HCC 2998
# OVCAR-4 = test system: OVCAR-4
# SK-MEL-5 = test system: SK-MEL-5
# OVCAR-5 = test system: OVCAR-5
# MOLT-4 = test system: MOLT-4
# OVCAR-8 = test system: OVCAR-8
# HCT-15 = test system: HCT-15
# SK-MEL-2 = test system: SK-MEL-2
# U-251 = test system: U-251
# SF-268 = test system: SF-268
# DMS-273 = test system: DMS-273
# LOX IMVI = test system: LOX IMVI
# LXFL 529 = test system: LXFL 529
# NCI-H226 = test system: NCI-H226
# HOP-18 = test system: HOP-18
# RPMI-8226 = test system: RPMI-8226
# NCI-H460 = test system: NCI-H460
# HT-29 = test system: HT-29
# SF-539 = test system: SF-539
# SW-620 = test system: SW-620
# CAKI-1 = test system: CAKI-1
# COLO 205 = test system: COLO 205
# UACC-257 = test system: UACC-257
# SF-295 = test system: SF-295
# HOP-62 = test system: HOP-62
# OVCAR-3 = test system: OVCAR-3
# HL-60 = test system: HL-60
# SK-MEL-28 = test system: SK-MEL-28
# SNB-19 = test system: SNB-19
# EKVX = test system: EKVX
# K562 = test system: K562
# CCRF-CEM = test system: CCRF-CEM
# SK-OV-3 = test system: SK-OV-3
# NCI-H23 = test system: NCI-H23
# 786-0 = test system: 786-0
# RXF 393 = test system: RXF 393
# DMS-114 = test system: DMS-114
# SNB-75 = test system: SNB-75
# SR = test system: SR
compound,measurement,setting,value
Nc1ncn([C@@H]2C=C(CO)C(O)C2O)c(=O)n1 (some centres undefined),GI50,KM-20L2,63.8 µM (inactive)
same,GI50,SN12C,> 100 µM (inactive)
same,GI50,TK-10,> 100 µM (inactive)
same,GI50,KM12,85.3 µM (inactive)
same,GI50,A549,66.5 µM (inactive)
same,GI50,DLD-1,58.2 µM (inactive)
same,GI50,M14,60.1 µM (inactive)
same,GI50,IGROV-1,70.1 µM (inactive)
same,GI50,NCI-H522,> 100 µM (inactive)
same,GI50,M19-MEL,> 100 µM (inactive)
same,GI50,A498,> 100 µM (inactive)
same,GI50,Malme-3M,> 100 µM (inactive)
same,GI50,HCT-116,39.2 µM (inactive)
same,GI50,ACHN,51.4 µM (inactive)
same,GI50,HOP-92,> 100 µM (inactive)
same,GI50,XF498,> 100 µM (inactive)
same,GI50,RXF 631,> 100 µM (inactive)
same,GI50,UACC-62,83.9 µM (inactive)
same,GI50,UO-31,50.7 µM (inactive)
same,GI50,SNB-78,61.5 µM (inactive)
same,GI50,HCC 2998,56.2 µM (inactive)
same,GI50,OVCAR-4,> 100 µM (inactive)
same,GI50,SK-MEL-5,> 100 µM (inactive)
same,GI50,OVCAR-5,> 100 µM (inactive)
same,GI50,MOLT-4,56.5 µM (inactive)
same,GI50,OVCAR-8,79.3 µM (inactive)
same,GI50,HCT-15,60.3 µM
same,GI50,SK-MEL-2,> 100 µM (inactive)
same,GI50,U-251,> 100 µM (inactive)
same,GI50,SF-268,> 100 µM (inactive)
same,GI50,DMS-273,> 100 µM (inactive)
same,GI50,LOX IMVI,44.4 µM (inactive)
same,GI50,LXFL 529,75 µM (inactive)
same,GI50,NCI-H226,95.1 µM (inactive)
same,GI50,HOP-18,> 100 µM (inactive)
same,GI50,RPMI-8226,37.7 µM (inactive)
same,GI50,NCI-H460,28.6 µM (inactive)
same,GI50,HT-29,57.4 µM (inactive)
same,GI50,SF-539,> 100 µM (inactive)
same,GI50,SW-620,69.8 µM (inactive)
same,GI50,CAKI-1,98.4 µM (inactive)
same,GI50,COLO 205,37.8 µM (inactive)
same,GI50,UACC-257,> 100 µM (inactive)
same,GI50,SF-295,> 100 µM (inactive)
same,GI50,HOP-62,53.7 µM (inactive)
same,GI50,OVCAR-3,> 100 µM (inactive)
same,GI50,HL-60,39.5 µM (inactive)
same,GI50,SK-MEL-28,> 100 µM (inactive)
same,GI50,SNB-19,> 100 µM (inactive)
same,GI50,EKVX,> 100 µM (inactive)
same,GI50,K562,43.6 µM (inactive)
same,GI50,CCRF-CEM,45.5 µM (inactive)
same,GI50,SK-OV-3,> 100 µM (inactive)
same,GI50,NCI-H23,> 100 µM (inactive)
same,GI50,786-0,55.5 µM (inactive)
CC(=O)N1CCC(=O)/C(=C/c2ccccc2)C1,GI50,KM-20L2,27.4 µM (inactive)
same,GI50,SN12C,18.2 µM (inactive)
same,GI50,TK-10,97.3 µM (inactive)
same,GI50,KM12,24.3 µM (inactive)
same,GI50,A549,71.9 µM (inactive)
same,GI50,DLD-1,24.1 µM (inactive)
same,GI50,M14,33.8 µM (inactive)
same,GI50,IGROV-1,19.8 µM (inactive)
same,GI50,RXF 393,22.8 µM (inactive)
same,GI50,M19-MEL,20.4 µM (inactive)
same,GI50,A498,56.5 µM (inactive)
same,GI50,Malme-3M,91.2 µM (inactive)
same,GI50,HCT-116,18.1 µM (inactive)
same,GI50,ACHN,22.1 µM (inactive)
same,GI50,HOP-92,33.1 µM (inactive)
same,GI50,XF498,64 µM (inactive)
same,GI50,RXF 631,28.9 µM (inactive)
same,GI50,UACC-62,24.7 µM (inactive)
same,GI50,DMS-114,15.8 µM (inactive)
same,GI50,UO-31,> 100 µM (inactive)
same,GI50,SNB-78,38.5 µM (inactive)
same,GI50,HCC 2998,33.1 µM (inactive)
same,GI50,OVCAR-4,19.3 µM (inactive)
same,GI50,SK-MEL-5,34 µM (inactive)
same,GI50,OVCAR-5,> 100 µM (inactive)
same,GI50,SNB-75,37.1 µM (inactive)
same,GI50,MOLT-4,33.2 µM (inactive)
same,GI50,OVCAR-8,21.2 µM (inactive)
same,GI50,HCT-15,17.1 µM
same,GI50,U-251,17.1 µM (inactive)
same,GI50,SF-268,20.5 µM (inactive)
same,GI50,DMS-273,33 µM (inactive)
same,GI50,LOX IMVI,16.1 µM (inactive)
same,GI50,LXFL 529,21.9 µM (inactive)
same,GI50,NCI-H226,> 100 µM (inactive)
same,GI50,HOP-18,23.2 µM (inactive)
same,GI50,RPMI-8226,42.7 µM (inactive)
same,GI50,NCI-H460,27.7 µM (inactive)
same,GI50,HT-29,20.3 µM (inactive)
same,GI50,SR,24.5 µM (inactive)
same,GI50,SF-539,23.3 µM (inactive)
same,GI50,SW-620,17.6 µM (inactive)
same,GI50,CAKI-1,15.5 µM (inactive)
same,GI50,COLO 205,34.6 µM (inactive)
same,GI50,UACC-257,> 100 µM (inactive)
same,GI50,SF-295,42.8 µM (inactive)
same,GI50,HOP-62,89.3 µM (inactive)
same,GI50,OVCAR-3,33.3 µM (inactive)
same,GI50,SK-MEL-28,18 µM (inactive)
same,GI50,SNB-19,> 100 µM (inactive)
same,GI50,K562,37.8 µM (inactive)
same,GI50,SK-OV-3,75.2 µM (inactive)
same,GI50,NCI-H23,32.4 µM (inactive)
same,GI50,786-0,27.7 µM (inactive)
